# Test system: MV-4-11 cells
# Test: Gene expression microarray analysis (Affymetrix PrimeView) and GSEA
# Assay type: cell-based, human
# Design: RFU PODN (11730768_x_at) / Fold change /veh PODN (11730768_x_at) / RFU LINC00158 (11744669_a_at) / Fold change /veh LINC00158 (11744669_a_at) / RFU DUSP10 (11751237_a_at) / Fold change /veh DUSP10 (11751237_a_at) / RFU ID3 (11757404_x_at) / Fold change /veh ID3 (11757404_x_at) / RFU PLEKHG5 (11737974_s_at) / Fold change /veh PLEKHG5 (11737974_s_at) / RFU LRRC4B (11730491_at) / Fold change /veh LRRC4B (11730491_at) / RFU GIMAP4 (11747438_a_at) / Fold change /veh GIMAP4 (11747438_a_at) / RFU KRT8 (11758183_x_at) / Fold change /veh KRT8 (11758183_x_at) / RFU CNN1 (11734310_a_at) / Fold change /veh CNN1 (11734310_a_at) / RFU VPS37D (11726825_at) / Fold change /veh VPS37D (11726825_at) / RFU C10orf10 (11716522_x_at) / Fold change /veh C10orf10 (11716522_x_at) / RFU KIR2DL2 /// KIR2DL4 /// KIR2DL5A /// KIR2DL5B /// KIR2DS1 /// KIR2DS2 /// KIR2DS3 /// KIR2DS4 /// KIR3DL3 /// KIR3DL3 /// KIR3DS1 (11738374_at) / Fold change /veh KIR2DL2 /// KIR2DL4 /// KIR2DL5A /// KIR2DL5B /// KIR2DS1 /// KIR2DS2 /// KIR2DS3 /// KIR2DS4 /// KIR3DL3 /// KIR3DL3 /// KIR3DS1 (11738374_at) / RFU C1QL1 (11718748_at) / Fold change /veh C1QL1 (11718748_at) / RFU TMPRSS4 (11747572_a_at) / Fold change /veh TMPRSS4 (11747572_a_at) / RFU HAMP (11756126_x_at) / Fold change /veh HAMP (11756126_x_at) / RFU RNFT2 (11725882_a_at) / Fold change /veh RNFT2 (11725882_a_at) / RFU NR4A2 (11747474_a_at) / Fold change /veh NR4A2 (11747474_a_at) / RFU ABCC12 (11746883_a_at) / Fold change /veh ABCC12 (11746883_a_at) / RFU TMEM136 (11760407_x_at) / Fold change /veh TMEM136 (11760407_x_at) / RFU CLDN22 /// WWC2 (11732394_at) / Fold change /veh CLDN22 /// WWC2 (11732394_at) / RFU HLA-DPB1 (11760878_x_at) / Fold change /veh HLA-DPB1 (11760878_x_at) / RFU SPINT1 (11716480_a_at) / Fold change /veh SPINT1 (11716480_a_at) / RFU GAP43 (11754022_s_at) / Fold change /veh GAP43 (11754022_s_at) / RFU A4GNT (11735810_at) / Fold change /veh A4GNT (11735810_at) / RFU PRB3 (11715151_x_at) / Fold change /veh PRB3 (11715151_x_at) / RFU TUBB4B (11761932_at) / Fold change /veh TUBB4B (11761932_at) / RFU CAPN14 (11732068_a_at) / Fold change /veh CAPN14 (11732068_a_at) / RFU TMCC2 (11721928_a_at) / Fold change /veh TMCC2 (11721928_a_at) / RFU IRGQ (11745062_a_at) / Fold change /veh IRGQ (11745062_a_at) / RFU FAM174B (11720279_a_at) / Fold change /veh FAM174B (11720279_a_at) / RFU TMPRSS4 (11748680_a_at) / Fold change /veh TMPRSS4 (11748680_a_at) / RFU FAM212B (11763350_a_at) / Fold change /veh FAM212B (11763350_a_at) / RFU PLEKHG5 (11743358_a_at) / Fold change /veh PLEKHG5 (11743358_a_at) / RFU ZSCAN30 (11745921_a_at) / Fold change /veh ZSCAN30 (11745921_a_at) / RFU CMKLR1 (11741424_a_at) / Fold change /veh CMKLR1 (11741424_a_at) / RFU LOC101060620 /// MAPK8IP1 (11723275_at) / Fold change /veh LOC101060620 /// MAPK8IP1 (11723275_at) / RFU SPTSSB (11747773_x_at) / Fold change /veh SPTSSB (11747773_x_at) / RFU PRSS12 (11739890_at) / Fold change /veh PRSS12 (11739890_at) / RFU BIN1 (11741810_x_at) / Fold change /veh BIN1 (11741810_x_at) / RFU WNT11 (11732464_a_at) / Fold change /veh WNT11 (11732464_a_at) / RFU C10orf10 (11716521_a_at) / Fold change /veh C10orf10 (11716521_a_at) / RFU C5orf56 (11738089_at) / Fold change /veh C5orf56 (11738089_at) / RFU CYB561 (11721691_x_at) / Fold change /veh CYB561 (11721691_x_at) / RFU ANKRD19P (11752326_a_at) / Fold change /veh ANKRD19P (11752326_a_at) / RFU OR2T12 /// OR2T33 /// OR2T8 (11738714_s_at) / Fold change /veh OR2T12 /// OR2T33 /// OR2T8 (11738714_s_at) / RFU VCAN (11748164_a_at) / Fold change /veh VCAN (11748164_a_at) / RFU JSRP1 (11732532_at) / Fold change /veh JSRP1 (11732532_at) / RFU KRTAP10-11 (11738290_x_at) / Fold change /veh KRTAP10-11 (11738290_x_at) / RFU MYO3A (11730013_a_at) / Fold change /veh MYO3A (11730013_a_at) / RFU EBF3 (11725865_a_at) / Fold change /veh EBF3 (11725865_a_at) / RFU CAMK2N1 (11719241_x_at) / Fold change /veh CAMK2N1 (11719241_x_at) / RFU C5orf56 (11738088_a_at) / Fold change /veh C5orf56 (11738088_a_at) / RFU OLFML3 (11715873_a_at) / Fold change /veh OLFML3 (11715873_a_at) / RFU LOC100653217 /// NTM (11731650_a_at) / Fold change /veh LOC100653217 /// NTM (11731650_a_at) / RFU MAPK11 (11762145_a_at) / Fold change /veh MAPK11 (11762145_a_at) / RFU FIZ1 (11724087_x_at) / Fold change /veh FIZ1 (11724087_x_at) / RFU OASL (11726364_x_at) / Fold change /veh OASL (11726364_x_at) / RFU SOX15 (11748057_x_at) / Fold change /veh SOX15 (11748057_x_at) / RFU CD79A (11719716_a_at) / Fold change /veh CD79A (11719716_a_at) / RFU HIST1H1D (11736915_at) / Fold change /veh HIST1H1D (11736915_at) / RFU CASKIN2 (11723855_a_at) / Fold change /veh CASKIN2 (11723855_a_at) / RFU LOC730098 (11760151_x_at) / Fold change /veh LOC730098 (11760151_x_at) / RFU OR4N2 (11742367_at) / Fold change /veh OR4N2 (11742367_at) / RFU PRRT2 (11749266_a_at) / Fold change /veh PRRT2 (11749266_a_at) / RFU SNX32 (11753110_a_at) / Fold change /veh SNX32 (11753110_a_at) / RFU CDHR5 (11726645_a_at) / Fold change /veh CDHR5 (11726645_a_at) / RFU RCAN1 (11760418_a_at) / Fold change /veh RCAN1 (11760418_a_at) / RFU FAM167A (11723789_a_at) / Fold change /veh FAM167A (11723789_a_at) / RFU FAM26E (11764081_at) / Fold change /veh FAM26E (11764081_at) / RFU ISYNA1 (11749810_s_at) / Fold change /veh ISYNA1 (11749810_s_at) / RFU ACY1 (11761880_at) / Fold change /veh ACY1 (11761880_at) / RFU 11764098_at / Fold change /veh 11764098_at / RFU SAMD14 (11745864_x_at) / Fold change /veh SAMD14 (11745864_x_at) / RFU NPB (11741838_a_at) / Fold change /veh NPB (11741838_a_at) / RFU TMPRSS6 (11731388_a_at) / Fold change /veh TMPRSS6 (11731388_a_at) / RFU KRTAP10-2 (11738614_at) / Fold change /veh KRTAP10-2 (11738614_at) / RFU ARHGAP8 /// PRR5-ARHGAP8 (11727945_x_at) / Fold change /veh ARHGAP8 /// PRR5-ARHGAP8 (11727945_x_at) / RFU KRTAP5-7 /// NADSYN1 (11734609_at) / Fold change /veh KRTAP5-7 /// NADSYN1 (11734609_at) / RFU RASL12 (11751679_a_at) / Fold change /veh RASL12 (11751679_a_at) / RFU CDKN2B (11736163_a_at) / Fold change /veh CDKN2B (11736163_a_at) / RFU PRF1 (11729649_at) / Fold change /veh PRF1 (11729649_at) / RFU, ZNF638 /// ZNF638-IT1 / Fold change vs veh, ZNF638 /// ZNF638-IT1 / RFU, PANK3 / Fold change vs veh, PANK3 / RFU, SH3YL1 / Fold change vs veh, SH3YL1 / RFU, ZEB2 / Fold change vs veh, ZEB2 / RFU, NRIP1 / Fold change vs veh, NRIP1 / RFU, PTTG1IP / Fold change vs veh, PTTG1IP / RFU, CAPN2 / Fold change vs veh, CAPN2 / RFU, MED14 / Fold change vs veh, MED14 / RFU, SNORA58 / Fold change vs veh, SNORA58 / RFU, C1orf63 / Fold change vs veh, C1orf63 / RFU, LRRFIP1 / Fold change vs veh, LRRFIP1 / RFU, NDUFAF7 / Fold change vs veh, NDUFAF7 / RFU, SLC12A2 / Fold change vs veh, SLC12A2 / RFU, IBTK / Fold change vs veh, IBTK / RFU, ESF1 / Fold change vs veh, ESF1 / Fold change vs veh, TMEM50B / RFU, TAOK1 / Fold change vs veh, TAOK1 / RFU, ACBD3 / Fold change vs veh, ACBD3 / RFU, TMA16 / Fold change vs veh, TMA16 / RFU, RWDD3 / Fold change vs veh, RWDD3 / RFU, BCAT1 / Fold change vs veh, BCAT1 / RFU, EDEM3 / Fold change vs veh, EDEM3 / RFU, TMEM33 / Fold change vs veh, TMEM33 / RFU, WDR75 / Fold change vs veh, WDR75 / RFU, AHCTF1 / Fold change vs veh, AHCTF1 / RFU, TFRC / Fold change vs veh, TFRC / RFU, ZDHHC17 / Fold change vs veh, ZDHHC17 / RFU, NOM1 / Fold change vs veh, NOM1 / RFU, ARL8B / Fold change vs veh, ARL8B / RFU, ZBTB11 / Fold change vs veh, ZBTB11 / RFU, TAMM41 / Fold change vs veh, TAMM41 / RFU, KIAA1704 /// LOC100996395 / Fold change vs veh, KIAA1704 /// LOC100996395 / RFU, ING1 / Fold change vs veh, ING1 / RFU, TRMT61B / Fold change vs veh, TRMT61B / RFU, FUBP3 / Fold change vs veh, FUBP3 / RFU, TP53 / Fold change vs veh, TP53 / RFU, TNKS2 / Fold change vs veh, TNKS2 / RFU, ZFP14 / Fold change vs veh, ZFP14 / RFU, ACTR2 / Fold change vs veh, ACTR2 / RFU, PPP3R1 / Fold change vs veh, PPP3R1 / RFU, PIK3R1 / Fold change vs veh, PIK3R1 / RFU, HNRNPA1 / Fold change vs veh, HNRNPA1 / RFU, RNF170 / Fold change vs veh, RNF170 / RFU, ZNF28 / Fold change vs veh, ZNF28 / RFU, RNGTT / Fold change vs veh, RNGTT / RFU, OGT / Fold change vs veh, OGT / RFU, BRD1 / Fold change vs veh, BRD1 / RFU, MARS / Fold change vs veh, MARS / RFU, ZNF655 / Fold change vs veh, ZNF655 / RFU, FAHD1 / Fold change vs veh, FAHD1 / RFU, BDP1 / Fold change vs veh, BDP1 / RFU, LRRCC1 / Fold change vs veh, LRRCC1 / RFU, ARID1A / Fold change vs veh, ARID1A / RFU, ZNF146 / Fold change vs veh, ZNF146 / RFU, ZNF330 / Fold change vs veh, ZNF330 / RFU, GPN3 / Fold change vs veh, GPN3 / RFU, C9orf123 / Fold change vs veh, C9orf123 / RFU, N4BP2L2 / Fold change vs veh, N4BP2L2 / RFU, ARFIP1 / Fold change vs veh, ARFIP1 / RFU, FAM179B / Fold change vs veh, FAM179B / RFU, BCL10 / Fold change vs veh, BCL10 / RFU, UHRF1BP1L / Fold change vs veh, UHRF1BP1L / RFU, BET1 / Fold change vs veh, BET1 / RFU, CNOT2 / Fold change vs veh, CNOT2 / RFU, ZNF268 / Fold change vs veh, ZNF268 / Fold change vs veh, ZNF507 / RFU, DGCR2 / Fold change vs veh, DGCR2 / RFU, WDSUB1 / Fold change vs veh, WDSUB1 / Fold change vs veh, HSP90B1 /// MIR3652 / RFU, ADSS / Fold change vs veh, ADSS / RFU, GK / Fold change vs veh, GK / RFU, ZNF148 / Fold change vs veh, ZNF148 / RFU, TAF9 / Fold change vs veh, TAF9 / RFU, SLC1A5 / Fold change vs veh, SLC1A5 / RFU, SLMO2 / Fold change vs veh, SLMO2 / RFU, ABCC4 / Fold change vs veh, ABCC4 / RFU, LOC101060439 /// RAP1B / Fold change vs veh, LOC101060439 /// RAP1B / RFU, RFX7 / Fold change vs veh, RFX7 / RFU, GTPBP10 / Fold change vs veh, GTPBP10 / RFU, CNEP1R1 / Fold change vs veh, CNEP1R1 / RFU, BIVM-ERCC5 /// ERCC5 / Fold change vs veh, BIVM-ERCC5 /// ERCC5 / RFU, ILF3 / Fold change vs veh, ILF3 / RFU 11762660_at / Fold change /veh 11762660_at / RFU VCAN (11757783_s_at) / Fold change /veh VCAN (11757783_s_at) / RFU DDX43 (11728927_at) / Fold change /veh DDX43 (11728927_at) / RFU KRT8 (11758188_x_at) / Fold change /veh KRT8 (11758188_x_at) / RFU NKD1 (11759106_at) / Fold change /veh NKD1 (11759106_at) / RFU SRD5A1 (11742802_a_at) / Fold change /veh SRD5A1 (11742802_a_at) / RFU TPSAB1 /// TPSB2 (11721975_s_at) / Fold change /veh TPSAB1 /// TPSB2 (11721975_s_at) / RFU GSTM3 (11746129_a_at) / Fold change /veh GSTM3 (11746129_a_at) / RFU IL23R (11737362_x_at) / Fold change /veh IL23R (11737362_x_at) / RFU TMEM51 (11727254_a_at) / Fold change /veh TMEM51 (11727254_a_at) / RFU PIWIL2 (11732686_x_at) / Fold change /veh PIWIL2 (11732686_x_at) / RFU ORM1 (11744905_x_at) / Fold change /veh ORM1 (11744905_x_at) / RFU CCDC152 (11743942_at) / Fold change /veh CCDC152 (11743942_at) / RFU ECM1 (11717891_a_at) / Fold change /veh ECM1 (11717891_a_at) / RFU IL23R (11748794_a_at) / Fold change /veh IL23R (11748794_a_at) / RFU TNFAIP8L3 (11732012_x_at) / Fold change /veh TNFAIP8L3 (11732012_x_at) / RFU MBOAT4 (11741988_at) / Fold change /veh MBOAT4 (11741988_at) / RFU 11764193_at / Fold change /veh 11764193_at / RFU TMEM53 (11763286_at) / Fold change /veh TMEM53 (11763286_at) / RFU MAGEB2 (11727129_at) / Fold change /veh MAGEB2 (11727129_at) / RFU TMEM200A (11744735_a_at) / Fold change /veh TMEM200A (11744735_a_at) / RFU CCDC152 (11751479_a_at) / Fold change /veh CCDC152 (11751479_a_at) / RFU FAM211A (11726209_a_at) / Fold change /veh FAM211A (11726209_a_at) / RFU RGS16 (11746705_a_at) / Fold change /veh RGS16 (11746705_a_at) / RFU VCAN (11755009_s_at) / Fold change /veh VCAN (11755009_s_at) / RFU RHOB (11743442_s_at) / Fold change /veh RHOB (11743442_s_at) / RFU RGS16 (11720943_a_at) / Fold change /veh RGS16 (11720943_a_at) / RFU RGS16 (11720944_at) / Fold change /veh RGS16 (11720944_at) / RFU, VPS4B / Fold change vs veh, VPS4B / RFU, CREB1 / Fold change vs veh, CREB1 / RFU, DNAJC13 / Fold change vs veh, DNAJC13 / RFU, GNAQ / Fold change vs veh, GNAQ / RFU, CDK5R1 / Fold change vs veh, CDK5R1 / RFU, ZRANB3 / Fold change vs veh, ZRANB3 / RFU, CUL4A / Fold change vs veh, CUL4A / RFU, CCNY / Fold change vs veh, CCNY / RFU, UFL1 / Fold change vs veh, UFL1 / RFU, COG3 / Fold change vs veh, COG3 / RFU, DIAPH2 / Fold change vs veh, DIAPH2 / RFU, SKA2 / Fold change vs veh, SKA2 / RFU, AFF3 / Fold change vs veh, AFF3 / RFU, LMF1 / Fold change vs veh, LMF1 / RFU, IPO11 / Fold change vs veh, IPO11 / RFU, DFFB / Fold change vs veh, DFFB / RFU, FOXP1 / Fold change vs veh, FOXP1 / RFU, CARD8 / Fold change vs veh, CARD8 / RFU, STRN3 / Fold change vs veh, STRN3 / RFU, ADK / Fold change vs veh, ADK / RFU, RASSF2 / Fold change vs veh, RASSF2 / RFU, WIPF1 / Fold change vs veh, WIPF1 / RFU, LARP1B / Fold change vs veh, LARP1B / RFU, RASA1 / Fold change vs veh, RASA1 / RFU, RB1 / Fold change vs veh, RB1 / RFU, PPFIA1 / Fold change vs veh, PPFIA1 / RFU, MAT2A / Fold change vs veh, MAT2A / RFU, CCT5 / Fold change vs veh, CCT5 / RFU, WDR92 / Fold change vs veh, WDR92 / RFU, CUX1 / Fold change vs veh, CUX1 / RFU, TTC7A / Fold change vs veh, TTC7A / RFU, TMEM135 / Fold change vs veh, TMEM135 / RFU, DEPTOR / Fold change vs veh, DEPTOR / RFU, CPM / Fold change vs veh, CPM / RFU, DNAJB6 / Fold change vs veh, DNAJB6 / RFU, CACNA2D3 / Fold change vs veh, CACNA2D3 / RFU, DTX4 / Fold change vs veh, DTX4 / RFU, TFCP2 / Fold change vs veh, TFCP2 / RFU, GMCL1 /// GMCL1P1 / Fold change vs veh, GMCL1 /// GMCL1P1 / RFU, AEBP2 / Fold change vs veh, AEBP2 / RFU, SNHG1 /// SNORD22 /// SNORD25 /// SNORD26 /// SNORD27 /// SNORD28 /// SNORD29 /// SNORD31 / Fold change vs veh, SNHG1 /// SNORD22 /// SNORD25 /// SNORD26 /// SNORD27 /// SNORD28 /// SNORD29 /// SNORD31 / Fold change (Aza/veh), C12orf56 (ProbeSet 11735607_a_at) / Fold change (ACY-1035/veh), C12orf56 (ProbeSet 11735607_a_at) / Fold change (Aza/veh), FGFR1OP (ProbeSet 11751329_s_at) / Fold change (ACY-1035/veh), FGFR1OP (ProbeSet 11751329_s_at) / Fold change (Aza/veh), VPS36 (ProbeSet 11739960_a_at) / Fold change (ACY-1035/veh), VPS36 (ProbeSet 11739960_a_at) / RFU SYPL1 (11715823_x_at) / Fold change /veh SYPL1 (11715823_x_at) / RFU IGFBP7 (11715501_s_at) / Fold change /veh IGFBP7 (11715501_s_at) / RFU REEP3 (11722064_at) / Fold change /veh REEP3 (11722064_at) / RFU IGLL1 (11728026_x_at) / Fold change /veh IGLL1 (11728026_x_at): dose or concentration left out as unconfirmed
# Settings: ProbeSet 11749551_a_at; LIST B
smiles,measurement,value
Nc1ncn([C@@H]2O[C@H](CO)[C@@H](O)[C@H]2O)c(=O)n1 [azacitidine],"RFU, RNGTT",56.67 RFU
